Assay results as given in publication PMC12626888, “Discovery of iridoid cyclase completes the iridoid pathway in asterids” (Nature Plants, 2025).

What was measured:
Assay type in all cases: biochemical
SiICYC [1] = molecular target: T1, SiICYC (Sesamum indicum, UniProt A0A6I9UJQ5); assay: spectrophotometric esterase assay, […] nm; settings: 2 mM substrate; 0.5 uM enzyme; 100 mM HEPES pH 7; 1 mM CaCl2; 25 °C
T1 construct: gene LOC105177689; synthetic full-length gene in pOPINF, His-tagged, E. coli SoluBL21 (DE3), Ni-NTA

AsICYC [2] = molecular target: T2, AsICYC (Alangium salviifolium, UniProt Z9MAI7V5A1); assay: spectrophotometric esterase assay, […] nm; settings: 2 mM substrate; 0.5 uM enzyme; 100 mM HEPES pH 7; 1 mM CaCl2; 25 °C
T2 construct: full-length CDS in pOPINF, His-tagged, E. coli SoluBL21 (DE3), Ni-NTA
T2 sequence (Z9MAI7V5A1 1-262): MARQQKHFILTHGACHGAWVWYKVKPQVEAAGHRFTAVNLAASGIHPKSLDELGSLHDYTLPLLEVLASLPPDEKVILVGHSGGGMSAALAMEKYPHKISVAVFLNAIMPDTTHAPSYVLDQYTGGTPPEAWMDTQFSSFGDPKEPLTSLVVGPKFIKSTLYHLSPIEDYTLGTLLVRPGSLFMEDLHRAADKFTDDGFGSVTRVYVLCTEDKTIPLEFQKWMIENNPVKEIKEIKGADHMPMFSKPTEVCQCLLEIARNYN

LjICYC [3] = molecular target: T3, LjICYC (Lonicera japonica, UniProt Z9XP04JJ76); assay: spectrophotometric esterase assay, […] nm; settings: 2 mM substrate; 0.5 uM enzyme; 100 mM HEPES pH 7; 1 mM CaCl2; 25 °C
T3 construct: synthetic full-length gene in pOPINF, His-tagged, E. coli SoluBL21 (DE3), Ni-NTA
T3 sequence (Z9XP04JJ76 1-260): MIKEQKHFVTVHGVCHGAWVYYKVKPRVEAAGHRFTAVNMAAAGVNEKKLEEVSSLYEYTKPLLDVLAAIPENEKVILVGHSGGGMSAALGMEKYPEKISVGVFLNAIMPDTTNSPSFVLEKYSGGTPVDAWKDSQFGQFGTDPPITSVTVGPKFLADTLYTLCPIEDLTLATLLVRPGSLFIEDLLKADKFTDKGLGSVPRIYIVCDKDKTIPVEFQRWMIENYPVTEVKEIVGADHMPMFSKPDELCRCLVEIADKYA

AmICYC [4] = molecular target: T4, AmICYC (Antirrhinum majus, UniProt Z9RFY5ZUY7); assay: spectrophotometric esterase assay, […] nm; settings: 2 mM substrate; 0.5 uM enzyme; 100 mM HEPES pH 7; 1 mM CaCl2; 25 °C
T4 construct: synthetic full-length gene in pOPINF, His-tagged, E. coli SoluBL21 (DE3), Ni-NTA
T4 sequence (Z9RFY5ZUY7 1-261): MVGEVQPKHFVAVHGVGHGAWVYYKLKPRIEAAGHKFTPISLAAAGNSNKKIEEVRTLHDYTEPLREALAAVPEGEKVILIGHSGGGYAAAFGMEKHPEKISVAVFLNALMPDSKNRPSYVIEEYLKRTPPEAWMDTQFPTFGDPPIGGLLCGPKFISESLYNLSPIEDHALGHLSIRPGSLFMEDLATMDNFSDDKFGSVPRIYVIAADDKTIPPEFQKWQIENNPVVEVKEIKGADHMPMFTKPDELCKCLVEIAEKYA

VcICYC [5] = molecular target: T5, VcICYC (Vaccinium corymbosum, UniProt Z9DZC4CR80); assay: spectrophotometric esterase assay, […] nm; settings: 2 mM substrate; 0.5 uM enzyme; 100 mM HEPES pH 7; 1 mM CaCl2; 25 °C
T5 construct: synthetic full-length gene in pOPINF, His-tagged, E. coli SoluBL21 (DE3), Ni-NTA
T5 sequence (Z9DZC4CR80 1-256): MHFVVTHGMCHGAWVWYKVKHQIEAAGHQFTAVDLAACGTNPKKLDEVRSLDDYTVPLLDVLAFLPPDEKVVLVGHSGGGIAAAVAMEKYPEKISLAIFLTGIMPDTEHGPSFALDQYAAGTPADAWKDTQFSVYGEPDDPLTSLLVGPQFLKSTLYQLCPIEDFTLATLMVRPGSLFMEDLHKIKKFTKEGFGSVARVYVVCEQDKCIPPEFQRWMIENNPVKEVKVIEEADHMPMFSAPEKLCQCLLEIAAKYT

CrICYC [6] = molecular target: T6, CrICYC (Catharanthus roseus, UniProt Z9BZX6L7S3); assay: spectrophotometric esterase assay, […] nm; settings: 2 mM substrate; 0.5 uM enzyme; 100 mM HEPES pH 7; 1 mM CaCl2; 25 °C
T6 construct: full-length CDS in pOPINF, His-tagged, E. coli SoluBL21 (DE3), Ni-NTA
T6 sequence (Z9BZX6L7S3 1-258): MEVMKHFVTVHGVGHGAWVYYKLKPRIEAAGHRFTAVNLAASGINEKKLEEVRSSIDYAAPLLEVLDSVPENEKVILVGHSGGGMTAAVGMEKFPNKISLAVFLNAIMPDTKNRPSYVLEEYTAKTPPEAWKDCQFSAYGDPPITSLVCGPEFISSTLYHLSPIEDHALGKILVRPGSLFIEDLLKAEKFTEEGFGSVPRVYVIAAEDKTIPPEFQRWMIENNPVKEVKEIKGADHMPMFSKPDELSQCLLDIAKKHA

CiICYC [7] = molecular target: T7, CiICYC (Carapichea ipecacuanha, UniProt Z9ZM09DHC0); assay: spectrophotometric esterase assay, […] nm; settings: 2 mM substrate; 0.5 uM enzyme; 100 mM HEPES pH 7; 1 mM CaCl2; 25 °C
T7 construct: full-length CDS in pOPINF, His-tagged, E. coli SoluBL21 (DE3), Ni-NTA
T7 sequence (Z9ZM09DHC0 1-260): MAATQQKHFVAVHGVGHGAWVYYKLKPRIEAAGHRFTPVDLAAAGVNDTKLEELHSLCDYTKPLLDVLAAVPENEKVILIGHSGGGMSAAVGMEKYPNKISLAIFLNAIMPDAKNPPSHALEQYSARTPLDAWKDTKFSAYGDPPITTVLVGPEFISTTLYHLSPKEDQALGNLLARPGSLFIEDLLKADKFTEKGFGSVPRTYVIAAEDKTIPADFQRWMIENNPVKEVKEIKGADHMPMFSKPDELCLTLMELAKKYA

CrISY = molecular target: T8, CrISY (Catharanthus roseus, UniProt K7WDL7); assay: GC-MS of products; settings: 0.5 mM 8-oxogeranial; 1 mM NADPH; 0.25 uM CrISY; 100 mM MOPS pH 7.5; 30 °C; 3 h
T8 construct: recombinant, E. coli, pOPINF His-tagged

AmISY = molecular target: T9, AmISY (Antirrhinum majus, UniProt A0A221J5P3); assay: GC-MS of products; settings: 0.5 mM 8-oxogeranial; 1 mM NADPH; 0.5 uM AmISY; 100 mM MOPS pH 7.5; 30 °C; 3 h
T9 construct: gene ISY; recombinant, E. coli, pOPINF His-tagged
T9 sequence (A0A221J5P3 1-387): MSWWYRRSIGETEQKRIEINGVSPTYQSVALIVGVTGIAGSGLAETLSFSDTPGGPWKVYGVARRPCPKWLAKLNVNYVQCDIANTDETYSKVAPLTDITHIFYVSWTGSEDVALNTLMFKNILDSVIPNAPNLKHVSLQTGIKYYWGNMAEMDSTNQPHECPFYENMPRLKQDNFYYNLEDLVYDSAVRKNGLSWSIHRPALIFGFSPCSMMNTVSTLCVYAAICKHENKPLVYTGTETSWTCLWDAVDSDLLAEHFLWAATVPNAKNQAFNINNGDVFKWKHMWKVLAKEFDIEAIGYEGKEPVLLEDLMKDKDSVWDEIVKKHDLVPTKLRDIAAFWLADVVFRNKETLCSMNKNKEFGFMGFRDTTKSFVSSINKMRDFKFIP

VcICYC [8] = molecular target: T5, VcICYC; assay: GC-MS of 7S-cis-trans nepetalactol formed in coupled assay with CrISY; settings: enol generated in situ from 0.5 mM 8-oxogeranial by CrISY with 1 mM NADPH; 2 uM ICYC; 100 mM MOPS pH 7.5; 30 °C; 3 h
LjICYC [9] = molecular target: T3, LjICYC; assay: as above; settings: enol generated in situ from 0.5 mM 8-oxogeranial by CrISY with 1 mM NADPH; 2 uM ICYC; 100 mM MOPS pH 7.5; 30 °C; 3 h
AsICYC [10] = molecular target: T2, AsICYC; assay: as above; settings: enol generated in situ from 0.5 mM 8-oxogeranial by CrISY with 1 mM NADPH; 2 uM ICYC; 100 mM MOPS pH 7.5; 30 °C; 3 h
CiICYC [11] = molecular target: T7, CiICYC; assay: as above; settings: enol generated in situ from 0.5 mM 8-oxogeranial by CrISY with 1 mM NADPH; 2 uM ICYC; 100 mM MOPS pH 7.5; 30 °C; 3 h
CrICYC [12] = molecular target: T6, CrICYC; assay: as above; settings: enol generated in situ from 0.5 mM 8-oxogeranial by CrISY with 1 mM NADPH; 2 uM ICYC; 100 mM MOPS pH 7.5; 30 °C; 3 h
SiICYC [13] = molecular target: T1, SiICYC; assay: GC-MS of 7R-cis-cis nepetalactol formed in coupled assay with AmISY; settings: enol generated in situ from 0.5 mM 8-oxogeranial by AmISY with 1 mM NADPH; 2 uM ICYC; 100 mM MOPS pH 7.5; 30 °C; 3 h
AmICYC [14] = molecular target: T4, AmICYC; assay: as above; settings: enol generated in situ from 0.5 mM 8-oxogeranial by AmISY with 1 mM NADPH; 2 uM ICYC; 100 mM MOPS pH 7.5; 30 °C; 3 h

T1 sequence (A0A6I9UJQ5 entry or part of it): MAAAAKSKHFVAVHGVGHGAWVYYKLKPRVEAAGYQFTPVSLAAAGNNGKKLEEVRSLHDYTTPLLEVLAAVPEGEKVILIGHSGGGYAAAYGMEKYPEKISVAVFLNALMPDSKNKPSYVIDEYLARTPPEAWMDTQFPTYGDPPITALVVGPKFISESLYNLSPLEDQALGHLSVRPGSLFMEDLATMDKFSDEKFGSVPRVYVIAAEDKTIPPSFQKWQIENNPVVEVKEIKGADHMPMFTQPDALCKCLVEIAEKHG
T8 sequence (K7WDL7 whole entry): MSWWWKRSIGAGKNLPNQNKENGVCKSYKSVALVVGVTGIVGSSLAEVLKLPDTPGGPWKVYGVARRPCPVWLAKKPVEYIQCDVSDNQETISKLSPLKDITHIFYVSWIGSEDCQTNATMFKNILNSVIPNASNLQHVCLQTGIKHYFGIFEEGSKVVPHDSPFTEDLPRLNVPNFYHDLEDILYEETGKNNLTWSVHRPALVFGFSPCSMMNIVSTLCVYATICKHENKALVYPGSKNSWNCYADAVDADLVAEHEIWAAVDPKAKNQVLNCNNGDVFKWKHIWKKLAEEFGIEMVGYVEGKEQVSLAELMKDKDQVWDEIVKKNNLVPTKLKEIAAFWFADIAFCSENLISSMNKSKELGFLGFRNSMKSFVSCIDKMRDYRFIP

Structure (SMILES): CC(=O)Oc1ccc([N+](=O)[O-])cc1 [4-nitrophenyl acetate]
- spectrophotometric esterase assay, 405 nm (SiICYC [1]): All ICYC orthologues showed esterase activity when tested with the model substrate 4-nitrophenyl acetate
- spectrophotometric esterase assay, 405 nm (AsICYC [2]): All ICYC orthologues showed esterase activity when tested with the model substrate 4-nitrophenyl acetate
- spectrophotometric esterase assay, 405 nm (LjICYC [3]): All ICYC orthologues showed esterase activity when tested with the model substrate 4-nitrophenyl acetate
- spectrophotometric esterase assay, 405 nm (AmICYC [4]): All ICYC orthologues showed esterase activity when tested with the model substrate 4-nitrophenyl acetate
- spectrophotometric esterase assay, 405 nm (VcICYC [5]): All ICYC orthologues showed esterase activity when tested with the model substrate 4-nitrophenyl acetate
- spectrophotometric esterase assay, 405 nm (CrICYC [6]): All ICYC orthologues showed esterase activity when tested with the model substrate 4-nitrophenyl acetate
- spectrophotometric esterase assay, 405 nm (CiICYC [7]): All ICYC orthologues showed esterase activity when tested with the model substrate 4-nitrophenyl acetate

Structure (SMILES): C/C(C=O)=C\CC/C(C)=C/C=O [8-oxogeranial]
- GC-MS of products (CrISY): CrISY and AmISY reduce 8-oxogeranial to form the unstable intermediate S- or R-8-oxocitronellyl enol
- GC-MS of products (AmISY): CrISY and AmISY reduce 8-oxogeranial to form the unstable intermediate S- or R-8-oxocitronellyl enol

Structure (SMILES): C/C(C=O)=C\CC[C@H](C)/C=C/O [S-8-oxocitronellyl enol]
- GC-MS of 7S-cis-trans nepetalactol formed in coupled assay with CrISY (VcICYC [8]): any of the ICYC orthologues, 7S-cis-trans (7S, 4aS, 7aS) nepetalactol accumulation was substantially increased
- GC-MS of 7S-cis-trans nepetalactol formed in coupled assay with CrISY (LjICYC [9]): any of the ICYC orthologues, 7S-cis-trans (7S, 4aS, 7aS) nepetalactol accumulation was substantially increased
- GC-MS of 7S-cis-trans nepetalactol formed in coupled assay with CrISY (AsICYC [10]): any of the ICYC orthologues, 7S-cis-trans (7S, 4aS, 7aS) nepetalactol accumulation was substantially increased
- GC-MS of 7S-cis-trans nepetalactol formed in coupled assay with CrISY (CiICYC [11]): any of the ICYC orthologues, 7S-cis-trans (7S, 4aS, 7aS) nepetalactol accumulation was substantially increased
- GC-MS of 7S-cis-trans nepetalactol formed in coupled assay with CrISY (CrICYC [12]): any of the ICYC orthologues, 7S-cis-trans (7S, 4aS, 7aS) nepetalactol accumulation was substantially increased

Structure (SMILES): C/C(C=O)=C\CC[C@@H](C)/C=C/O [R-8-oxocitronellyl enol]
- GC-MS of 7R-cis-cis nepetalactol formed in coupled assay with AmISY (SiICYC [13]): When AmISY was assayed with ICYC orthologues, a new peak appeared
- GC-MS of 7R-cis-cis nepetalactol formed in coupled assay with AmISY (AmICYC [14]): When AmISY was assayed with ICYC orthologues, a new peak appeared
